Results published in patent US11780895B2, “Targeted DNA demethylation and methylation” (The Jackson Laboratory, priority 2016, dated 2023).

Tests used:
[1] = system: hMLH1; test: hMLH1 mRNA levels by TaqMan qRT-PCR in transfected HEK293T cells; assay type: cell-based, human; details: for activation of hMLH1 by dCas9 direct fusions (relative change in mRNA levels): same combination of sgRNAs as Casilio-ME; for hMLH1 expression, fold over background (change in mRNA levels): sgRNAs 3+7, 60 hours post-transfection, GAPDH normalised
Experimental: To test the system, HEK293T cells were transfected with Casilio-ME components including Ct or Nt-fusion TET1-effector and a combination of 3 or 2 sgRNAs. Relative levels of hMLH1 mRNA were determined in TaqMan assays by using RNA extracted from cells 60 hours post-transfection and GAPDH as endogenous control for normalization of qRT-PCR measurements.
Cell culture and transfection. HEK293T cells were cultivated in Dulbecco's modified Eagle's medium (DMEM)(Sigma) with 10% fetal bovine serum (FBS)(Lonza), 4% Glutamax (Gibco), 1% Sodium Pyruvate (Gibco) and penicillin-streptomycin (Gibco) in an incubator set to 37° C. and 5% CO2. When indicated cells were treated with 2.5 μM or 5 μM 5-Azacytidine (sigma) as indicated with a daily change of medium containing freshly diluted drug. Cells were seeded into 12-well plates at 150,000 cells per well the day before being transfected with 100 ng of dCas9 construct, 100 ng of modified sgRNA construct and 200 ng of PUF-fusion with Attractene transfection reagent according to manufacturer's instructions (Qiagen). In dCas9-direct fusion experiments, cells were transfected with 200 ng dCas9-fusion constructs and 200 ng of modified sgRNA constructs. Transfected cells were harvested 60 hours after transfection, or otherwise indicated, and cell pellets were used for extractions of RNA, genomic DNA and protein.
Quantitative RT-PCR analysis. Cells were harvested, washed with Dulbecco's phosphate-buffered saline (dPBS), centrifuged at 125×g for 5 min and then the flash-frozen pellets were stored at −80° C. RNA was extracted using RNeasy Plus Mini Kit according to the manufacturer's instructions (Qiagen). cDNA libraries were made using Applied Biosystems High Capacity RNA-to-cDNA kit with 200 ng to 1 μg of RNA. TaqMan gene expression assays (Applied Biosystems) were designed using GAPDH (Hs03929097, VIC) as endogenous control and hMLH1 (Hs00179866, FAM) as target. TaqMan Universal Master Mix II, with UNG (Applied Biosystems) was used for Quantitative PCR (qPCR), with 2 μl of diluted cDNA used for each reaction. Activation was analyzed with the Applied Biosystems ViiA7 instrument. Gene expression levels were calculated by “delta delta Ct” algorithm and normalized to control samples.

[2] = system: TetO::tdTomato transgene; test: TetO::tdTomato transgene activation measured by FACS; assay type: cell-based
Description: In particular, to test whether appending PBS to the 3′ end of sgRNA affects sgRNA function, a series of modified Tet-targeting (sgTetO) or non-targeting control (sgControl) sgRNA were generated, with 0 copy, 5 copies, 15 copies, 25 copies, and 47 copies of the 8-mer Pumilio homologue domain-binding sequence (PBS) for PUF (3-2) (also simply referred to as PUFa) [PBS32 or PBSa: SEQ ID NO:8 (5′-UGUAUgUA-3′)], PUF(6-2/7-2) (also simply referred to as PUFb) [PBS6272 or PBSb: SEQ ID NO:9 (5′-UugAUAUA-3′)].
Cells were transfected with dCas9-VP64 with the different sgRNA scaffolds, and were analyzed by fluorescent-activated cell sorting (FACS) two days after transfection (FIG. 1B).
Fusions of PUF(3-2)::VP64 and PUF(6-2/7-2)::VP64, which interacts with sgRNA (sgRNA-PBS32) with 5′-UGUAUgUA-3′ binding sites and sgRNA-PBS6272 with 5′-UugAUAUA-3′ binding sites, respectively, were created, and their activity to turn on tdTomato expression in conjunction with dCas9 was tested. In addition, two additional pairs, PUFw-VP64 recognizing PBSw (5′-UGUAUAUA-3′) and PUFc-VP64 recognizing PBSc (5′-UugAUgUA-3′), were also constructed to test their ability to activate the same TetO::tdTomato expression in conjunction with dCas9 (FIG. 1D).
Cell Culture for Experiments. HEK293T cells were cultivated in Dulbecco's modified Eagle's medium (DMEM)(Sigma) with 10% fetal bovine serum (FBS)(Lonza), 4% Glutamax (Gibco), 1% Sodium Pyruvate (Gibco) and penicillin-streptomycin (Gibco). Incubator conditions were 37° C. and 5% CO2. For activation experiments, cells were seeded into 12-well plates at 100,000 cells per well the day before being transfected with 200 ng of dCas9 construct, 100 ng of modified sgRNA and 100 ng of PUF-fusion with Attractene transfection reagent (Qiagen). After transfection, cells were grown for 48 hrs and harvested for either RNA extraction or fluorescent-activated cell sorting (FACS). […]
Fluorescent-Activated Cell Sorting. […] Samples were analyzed on a FACScalibur flow cytometer using CellQuest Pro software (BD Bioscience). […] were collected in each run.

| Molecule | activation of hMLH1 by dCas9 direct fusions (relative change in mRNA levels) ([1]; HEK293T) | hMLH1 expression, fold over background (change in mRNA levels) ([1]; HEK293T) [fold] | other results |
| --- | --- | --- | --- |
| dCas9-TET1(CD): direct fusion of TET1(CD) to the C-terminus of dCas9 | relatively weak activation | 19 | hMLH1 activation relative to dCas9-p65HSF1 ([1]; HEK293T, same sgRNA combination): at best twice the activity obtained with transcription activator dCas9 fusion; hMLH1 activation as percentage of the activation obtained using Casilio-ME ([1]; same sgRNAs combination, parallel experiment): about 14% |
| TET1(CD)-dCas9: direct fusion of TET1(CD) to the N-terminus of dCas9 | much weaker activation than its respective C-terminal fusion | – | – |
| PUFa-TET1(CD): hTET1 catalytic domain (residues 1418 to 2136) fused to the C-terminus of PUFa (protein) MIDGGGGSDPKKKRKVDPKKKRKVDPKKKRKVGSTGSRNDGGGGSGGGGSGGGGSGRAGILPPKKKRKVSRGRSRLLEDFRNNRYPNLQLREIAGHIMEFSQDQHGSRFIQLKLERATPAERQLVFNEILQAAYQLMVDVFGNYVIQKFFEFGSLEQKLALAERIRGHVLSLALQMYGSRVIEKALEFIPSDQQNEMVRELDGHVLKCVKDQNGNHVVQKCIECVQPQSLQFIIDAFKGQVFALSTHPYGCRVIQRILEHCLPDQTLPILEELHQHTEQLVQDQYGNYVIQHVLEHGRPEDKSKIVAEIRGNVLVLSQHKFASNVVEKCVTHASRTERAVLIDEVCTMNDGPHSALYTMMKDQYANYVVQKMIDVAEPGQRKIVMHKIRPHIATLRKYTYGKHILAKLEKYYMKNGVDLGDPKKKRKVDPKKKRKVGGRGGGGSGGGGSGGGGSGPAELPTCSCLDRVIQKDKGPYYTHLGAGPSVAAVREIMENRYGQKGNAIRIEIVVYTGKEGKSSHGCPIAKWVLRRSSDEEKVLCLVRQRTGHHCPTAVMVVLIMVWDGIPLPMADRLYTELTENLKSYNGHPTDRRCTLNENRTCTCQGIDPETCGASFSFGCSWSMYFNGCKFGRSPSPRRFRIDPSSPLHEKNLEDNLQSLATRLAPIYKQYAPVAYQNQVEYENVARECRLGSKEGRPFSGVTACLDFCAHPHRDIHNMNNGSTVVCTLTREDNRSLGVIPQDEQLHVLPLYKLSDTDEFGSKEGMEAKIKSGAIEVLAPRRKKRTCFTQPVPRSGKKRAAMMTEVLAHKIRAVEKKPIPRIKRKNNSTTTNNSKPSSLPTLGSNTETVQPEVKSETEPHFILKSSDNTKTYSLMPSAPHPVKEASPGFSWSPKTASATPAPLKNDATASCGFSERSSTPHCTMPSGRLSGANAAAADGPGISQLGEVAPLPTLSAPVMEPLINSEPSTGVTEPLTPHQPNHQPSFLTSPQDLASSPMEEDEQHSEADEPPSDEPLSDDPLSPAEEKLPHIDEYWSDSEHIFLDANIGGVAIAPAHGSVLIECARRELHATTPVEHPNRNHPTRLSLVFYQHKNLNKPQHGFELNKIKFEAKEAKNKKMKASEQKDQAANEGPEQSSEVNELNQIPSHKALTLTHDNVVTVSPYALTHVAGPYNHWVID | – | 135 | time course of activation of hMLH1 transcription ([1]; HEK293T, RNA guides 3 and 7, 3, 4, 5 and 6 days post transfection): maintained during the course of these transient transfections |
| TET1(CD)-PUFa: hTET1 catalytic domain fused to the N-terminus of PUFa (protein) MGPAELPTCSCLDRVIQKDKGPYYTHLGAGPSVAAVREIMENRYGQKGNAIRIEIVVYTGKEGKSSHGCPIAKWVLRRSSDEEKVLCLVRQRTGHHCPTAVMVVLIMVWDGIPLPMADRLYTELTENLKSYNGHPTDRRCTLNENRTCTCQGIDPETCGASFSFGCSWSMYFNGCKFGRSPSPRRFRIDPSSPLHEKNLEDNLQSLATRLAPIYKQYAPVAYQNQVEYENVARECRLGSKEGRPFSGVTACLDFCAHPHRDIHNMNNGSTVVCTLTREDNRSLGVIPQDEQLHVLPLYKLSDTDEFGSKEGMEAKIKSGAIEVLAPRRKKRTCFTQPVPRSGKKRAAMMTEVLAHKIRAVEKKPIPRIKRKNNSTTTNNSKPSSLPTLGSNTETVQPEVKSETEPHFILKSSDNTKTYSLMPSAPHPVKEASPGFSWSPKTASATPAPLKNDATASCGFSERSSTPHCTMPSGRLSGANAAAADGPGISQLGEVAPLPTLSAPVMEPLINSEPSTGVTEPLTPHQPNHQPSFLTSPQDLASSPMEEDEQHSEADEPPSDEPLSDDPLSPAEEKLPHIDEYWSDSEHIFLDANIGGVAIAPAHGSVLIECARRELHATTPVEHPNRNHPTRLSLVFYQHKNLNKPQHGFELNKIKFEAKEAKNKKMKASEQKDQAANEGPEQSSEVNELNQIPSHKALTLTHDNVVTVSPYALTHVAGPYNHWVIDGGGGSDPKKKRKVDPKKKRKVDPKKKRKVGSTGSRNDGGGGSGGGGSGGGGSGRAGILPPKKKRKVSRGRSRLLEDFRNNRYPNLQLREIAGHIMEFSQDQHGSRFIQLKLERATPAERQLVFNEILQAAYQLMVDVFGNYVIQKFFEFGSLEQKLALAERIRGHVLSLALQMYGSRVIEKALEFIPSDQQNEMVRELDGHVLKCVKDQNGNHVVQKCIECVQPQSLQFIIDAFKGQVFALSTHPYGCRVIQRILEHCLPDQTLPILEELHQHTEQLVQDQYGNYVIQHVLEHGRPEDKSKIVAEIRGNVLVLSQHKFASNVVEKCVTHASRTERAVLIDEVCTMNDGPHSALYTMMKDQYANYVVQKMIDVAEPGQRKIVMHKIRPHIATLRKYTYGKHILAKLEKYYMKNGVDLGDPKKKRKVDPKKKRKVGGRGGGGSGGGGSGGGGSGPA | – | ≤ 20 | – |
| PUFa-VP64: PUF(3-2) domain with NLS fused to VP64 (protein) MGILPPKKKRKVSRGRSRLLEDFRNNRYPNLQLREIAGHIMEFSQDQHGSRFIQLKLERATPAERQLVFNEILQAAYQLMVDVFGNYVIQKFFEFGSLEQKLALAERIRGHVLSLALQMYGSRVIEKALEFIPSDQQNEMVRELDGHVLKCVKDQNGNHVVQKCIECVQPQSLQFIIDAFKGQVFALSTHPYGCRVIQRILEHCLPDQTLPILEELHQHTEQLVQDQYGNYVIQHVLEHGRPEDKSKIVAEIRGNVLVLSQHKFASNVVEKCVTHASRTERAVLIDEVCTMNDGPHSALYTMMKDQYANYVVQKMIDVAEPGQRKIVMHKIRPHIATLRKYTYGKHILAKLEKYYMKNGVDLGGPAGSGRADALDDFDLDMLGSDALDDFDLDMLGSDALDDFDLDMLGSDALDDFDLDMLYID | – | – | activation with only one PBSa ([2]; TetO-targeting sgRNA with 1 copy of PBSa): previously not observed; transgene activation with 15, 20, and 47 copies of PBS ([2]; with dCas9 and sgTetO-PBS, compared with 5-10 copies): slightly lower, albeit still substantial transgene activation |
